The values that follow come from US7045532B2 (Millennium Pharmaceuticals, Inc., priority 1999, dated 2006).

Like-named read-outs stand apart in the source and are kept apart here. Some results are limits rather than exact numbers.

The target of this test is T1, ACE-2 (Homo sapiens, UniProt Q9BYF1).
T1 construct: a stop codon inserted after the serine immediately preceding the transmembrane domain; made in house; host or cells: CHO K1 cells (transient transfection, purified from conditioned medium)
Description: ACE-2 Competitive Substrate Assay (ACS Assay). The class given is biochemical.

Where [1] appears, read: Ki class, compounds tested in 5% DMSO, 12 compound concentrations, Ki=Kiapp/(1+[S]/Km), read-out: Human ACE-2 Activity.
Where [2] appears, read: Table 3, very good ACE-2 inhibiting compounds, species not given, read-out: ACE-2 Activity, Ki.

T1 sequence (Q9BYF1 18-740 limits assumed): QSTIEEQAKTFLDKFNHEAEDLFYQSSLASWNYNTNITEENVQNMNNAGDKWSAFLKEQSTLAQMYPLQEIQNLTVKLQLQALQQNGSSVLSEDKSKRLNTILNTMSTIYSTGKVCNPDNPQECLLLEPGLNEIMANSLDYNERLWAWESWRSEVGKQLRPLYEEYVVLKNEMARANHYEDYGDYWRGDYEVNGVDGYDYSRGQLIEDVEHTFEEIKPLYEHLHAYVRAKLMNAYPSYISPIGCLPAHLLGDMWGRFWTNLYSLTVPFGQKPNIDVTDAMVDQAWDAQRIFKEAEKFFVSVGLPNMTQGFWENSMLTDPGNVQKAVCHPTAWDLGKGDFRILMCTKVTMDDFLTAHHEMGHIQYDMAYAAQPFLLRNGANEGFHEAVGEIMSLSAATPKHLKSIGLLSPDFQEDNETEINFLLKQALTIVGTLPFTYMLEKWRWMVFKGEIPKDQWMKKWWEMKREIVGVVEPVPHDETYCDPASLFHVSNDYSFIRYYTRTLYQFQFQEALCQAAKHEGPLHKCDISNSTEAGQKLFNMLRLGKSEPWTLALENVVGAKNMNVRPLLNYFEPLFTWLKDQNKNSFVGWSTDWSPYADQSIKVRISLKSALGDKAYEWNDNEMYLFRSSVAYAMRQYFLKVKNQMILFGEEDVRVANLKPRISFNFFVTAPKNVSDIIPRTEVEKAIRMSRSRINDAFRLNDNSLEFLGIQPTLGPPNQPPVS

Regarding `COc1cccc(Cn2cncc2C[C@H](NC(CC(C)C)C(=O)O)C(=O)O)c1OC` (single isomer, unassigned) [IO, 2-[1-Carboxy-2-[3-(2,3-dimethoxy-benzyl)-3H-imidazol-4-yl]-ethylamino)4-methyl-pentanoic acid], the Ki runs as follows: under setting [1], under 100 nM; under setting [2], 50 to 100 nM.
`COc1cccc(Cn2cncc2C[C@H](NC(CC(C)C)C(=O)O)C(=O)O)c1OC` (single isomer, unassigned) [IP, 2-[1-Carboxy-2-[3-(2,3-dimethoxy-benzyl)-3H-imidazol-4-yl]-ethylamino)4-methyl-pentanoic acid]: under setting [1], the Ki was over 500 nM.
On to `Cc1c(Cn2cncc2C[C@H](NC(CC(C)C)C(=O)O)C(=O)O)cccc1-c1ccccc1` (single isomer, unassigned) [IQ, 2-[1-Carboxy-2-[3-(2-methyl-biphenyl-3-ylmethyl)-3H-imidazol-4-yl]-ethylamino]-4-methyl-pentanoic acid], for which the Ki under setting [1] fell in the range of 100 to 500 nM.
Still for that read-out and setting: next, `Cc1c(Cn2cncc2C[C@H](NC(CC(C)C)C(=O)O)C(=O)O)cccc1-c1ccccc1` (single isomer, unassigned) [IR, 2-[1-Carboxy-2-[3-(2-methyl-biphenyl-3-ylmethyl)-3H-imidazol-4-yl]-ethylamino)-4-methyl-pentanoic acid]: over 500 nM.
Same read-out and setting: under `COc1ccc2ccccc2c1Cn1cncc1C[C@H](NC(CC(C)C)C(=O)O)C(=O)O` (single isomer, unassigned) [IS, 2-[1-Carboxy-2-[3-(2-methoxy-naphthalen-1-ylmethyl)-3H-imidazol-4-yl]-ethylamino]-4-methyl-pentanoic acid] stands over 500 nM.
On to `CC(C)CC(N[C@@H](Cc1cncn1Cc1cccc(F)c1F)C(=O)O)C(=O)O` (single isomer, unassigned) [IU, 2-[1-Carboxy-2-[3-(2,3-difluoro-benzyl)-3H-imidazol-4-yl]-ethylamino]4-methyl-pentanoic acid], for which the Ki reads like this: under setting [1], under 100 nM; under setting [2], 50 to 100 nM.
As for `CC(C)CC(N[C@@H](Cc1cncn1Cc1cccc(F)c1F)C(=O)O)C(=O)O` (single isomer, unassigned) [IV, 2-[1-Carboxy-2-[3-(2,3-difluoro-benzyl)-3H-imidazol-4-yl]-ethylamino]4-methyl-pentanoic acid], the Ki under setting [1] was over 500 nM.
Still for that read-out and setting: next, `CC(C)CC(N[C@@H](Cc1cncn1Cc1cccc(Cl)c1Cl)C(=O)O)C(=O)O` (single isomer, unassigned) [IY, 2-[1-Carboxy-2-[3-(2.3-dichloro-benzyl)-3H-imidazol-4-yl]-ethylamino]4-methyl-pentanoic acid]: under 100 nM; `CC(C)CC(N[C@@H](Cc1cncn1Cc1cccc(C(F)(F)F)c1)C(=O)O)C(=O)O` (single isomer, unassigned) [JA, 2-[1-Carboxy-2-[3-(3-trifluoromethyl-benzyl)-3H-imidazol-4-yl]-ethylamino]4-methyl-pentanoic acid]: over 500 nM.
Same read-out and setting: under `CC(C)CC(N[C@@H](Cc1cncn1Cc1c(Cl)cccc1Cl)C(=O)O)C(=O)O` (single isomer, unassigned) [JD, 2-[1-Carboxy-2-[3-(2,6-dichloro-benzyl)-3H-imidazol-4-yl]-ethylamino]4-methyl-pentanoic acid] stands over 500 nM; under `CC(C)CC(N[C@@H](Cc1cncn1Cc1ccc2c(c1)OCO2)C(=O)O)C(=O)O` (single isomer, unassigned) [JF], over 500 nM.
The same measure, in the same setting: next, `CC(C)CC(N[C@@H](Cc1cncn1CC1CCCCC1)C(=O)O)C(=O)O` (single isomer, unassigned) [JG, 2-[1-Carboxy-2-(3-cyclohexylmethyl-3H-imidazol-4-yl)-ethylamino]4-methyl-pentanoic acid]: over 500 nM; `CC(C)CC(N[C@@H](Cc1cncn1CCC1CCCCC1)C(=O)O)C(=O)O` (single isomer, unassigned) [JJ, 2-[1-Carboxy-2-[3-(2-cyclohexyl-ethyl)-3H-imidazol-4-yl]-ethylamino]4-methyl-pentanoic acid]: over 500 nM.
Take `CC(C)CC(N[C@@H](Cc1cncn1CCc1ccccc1)C(=O)O)C(=O)O` (single isomer, unassigned) [JL, 2-[1-Carboxy-2-[3-phenethyl-3H-imidazol-4-yl)-ethylamino]-4-methyl-pentanoic acid]: under setting [1], the Ki was over 500 nM.
For `CCC(CC)Cn1cncc1C[C@H](NC(CC(C)C)C(=O)O)C(=O)O` (single isomer, unassigned) [JM, 2-[1-Carboxy-2-[3-(2-ethylbutyl)-3H-imidazol-4-yl]-ethylamino]-4-methyl-pentanoic acid], under setting [1], the Ki was under 100 nM.
The same measure, in the same setting: next, `CCC(CC)Cn1cncc1C[C@H](NC(CC(C)C)C(=O)O)C(=O)O` (single isomer, unassigned) [JN, 2-[1-Carboxy-2-[3-(2-ethylbutyl)-3H-imidazol-4-yl]-ethylamino]-4-methyl-pentanoic acid]: over 500 nM; `CC(C)CC(N[C@@H](Cc1cncn1Cc1cccc(F)c1)C(=O)O)C(=O)O` (single isomer, unassigned) [JR, 2-[1-Carboxy-2-[3-(3-fluoro-benzyl)-3H-imidazol-4-yl]-ethylamino]4-methyl-pentanoic acid]: 100 to 500 nM.
On the same count and under the same terms, next, `CC(C)CC(N[C@@H](Cc1csc(Cc2ccccc2)n1)C(=O)O)C(=O)O` (single isomer, unassigned) [JZ, 2-[2-(2-Benzyl-thiazol-4-yl)-1-carboxy-ethylamino]-4-methyl-pentanoic acid]: over 500 nM; `Cc1nc(C[C@H](NC(CC(C)C)C(=O)O)C(=O)O)c(Cc2ccccc2)s1` (single isomer, unassigned) [KB, 2-[2-(5-Benzyl-2-methyl-thiazol-4-yl)-1-carboxy-ethylamino]-4-methyl-pentanoic acid]: 100 to 500 nM.
As to `Cc1nc(C[C@H](NC(CC(C)C)C(=O)O)C(=O)O)c(Cc2ccccc2)s1` (single isomer, unassigned) [KC, 2-[2-(5-Benzyl-2-methyl-thiazol-4-yl)-1-carboxy-ethylamino]-4-methyl-pentanoic acid], under setting [1], the Ki was over 500 nM.
For `CC(C)C[C@H](N[C@@H](Cc1cncn1Cc1cc(Cl)cc(Cl)c1)C(=O)OCc1ccccc1)C(=O)O` (single isomer, unassigned) [LC, 2-(1-Benzyloxycarbonyl-2-[3-(3,5-dichloro-benzyl)-3H-imidazol-4-yl]-ethylamino]-4-methyl-pentanoic acid], the Ki runs as follows: under setting [1], under 100 nM; under setting [2], under 50 nM.
For the compound `CC(C)CC(N[C@@H](Cc1csc(-c2ccccc2)n1)C(=O)O)C(=O)O` (stereo in doubt) [GQ, 2-[1-Carboxy-2-[2-phenyl-thiazol-4-yl)-ethylamino]-4-methyl-pentanoic acid], the Ki (Ki class, compounds tested in 5% DMSO, 12 concentrations, read-out: Human ACE-2 Activity) was over 500 nM.
For the compound `Cc1cc(C[C@H](NC(CC(C)C)C(=O)O)C(=O)O)no1` (stereo in doubt) [IM, 2-[1-Carboxy-2-(5-methyl-isoxazol-3-yl)-ethylamino]-4-methyl-pentanoic acid], the Ki under setting [1] is over 500 nM.
`CC(C)C[C@H](N[C@@H](CC1COC(=O)N1Cc1cc(Cl)cc(Cl)c1)C(=O)O)C(=O)O` (stereo in doubt) [NE, (S,S,S)-2-{1-Carboxy-2-[3-(3,5-dichloro-benzyl)-2-oxo-oxazolidin-4-yl]-ethylamino}-4-methyl-pentanoic acid]: the Ki reads like this: under setting [1], under 100 nM; under setting [2], 50 to 100 nM.
